Laboratory results published in US20250161180A1, “NOVEL USE OF 4-AMIDINO BENZYLAMINES” (DSM IP Assets B.V., priority 2022, published 2025).

Test system: collagen type 1
Experiment: in vitro dermal fibroblast collagen assay (collagen 1 immunolabeling, flow cytometry)
Assay type: cell-based, human
Settings: for Collagen 1 expression relative to untreated (%): normal human dermal fibroblasts, 72 hours, mean (n = 4), untreated = 100%
Procedure: Amidinobenzyl Benzylsulfonyl D-Seryl Homophenylalaninamide Acetate (ABSHA) was evaluated for its effect on collagen type 1. This was done using an in vitro dermal fibroblast collagen assay.
Normal human dermal fibroblasts were seeded in cell culture medium (Dulbecco's Modified Eagle Medium supplemented with 10% serum and 1% antibiotics) and allowed to adhere in a humidified cell incubator maintaining 37° C. and 5% CO2. Afterwards, the cells were starved with culture medium without serum for 16-24 hours to synchronize the cells their cell cycle. The starvation medium was removed and cell culture medium+SYN®-UP at various concentrations was added to the cells. The cells were treated for 72 hours. The cells were then fixated and immunolabeled with antibodies specific for collagen 1. These labeled cells were analyzed using flow cytometry and compared to the untreated ones (medium without SYN®-UP).
Table 1. […] Data are normalized to the untreated control (100%) and expressed as the mean±SD (n=4).

In the case of N=C(N)c1ccc(CNC(=O)C(CCc2ccccc2)NC(=O)C(CO)NS(=O)(=O)Cc2ccccc2)cc1 [ABSHA, Amidinobenzyl Benzylsulfonyl D-Seryl Homophenylalaninamide Acetate], the “effect on collagen type 1 expression (in words)” value (in vitro dermal fibroblast collagen assay) is reported as “increases collagen expression”, the “Collagen 1 expression relative to untreated (%)” value (1 μM) is reported as 144% and the “Collagen 1 expression relative to untreated (%)” value (5 μM) is reported as 160%. For the same compound, the “Collagen 1 expression relative to untreated (%)” value (25 μM) was 185% and the “Collagen 1 expression relative to untreated (%)” value (concentration printed only as "μM" (figure missing)) was 188%.
